# Test results as given in PubChem BioAssay AID2060910 (Molecular Pharmacology Branch, DTP, NCI, 2025).
# Test system: 242566-281-R-J2-PDC complex spheroid viability
# Test: Anticancer human tumor 242566-281-R-J2-PDC patient-derived pancreatic carcinoma cell line growth inhibition [RAS]
# Conditions: for IC50: curve of first compound; for viability, T/C: stronger effect = lower value
# Outline: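 Agents were tested in combination matrices in half-log decrements from a top concentration at or near clinical Cmax (10 microM if undetermined). Targets were multi-cell spheroids of tumour lines plus HUVEC and MSC stromal cells.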
# [1] = second compound 0.0316 µM, first compound 0.00316 µM
# [2] = second compound 0.0316 µM, first compound 0.01 µM
# [3] = second compound 0.0316 µM, first compound 0.0316 µM
# [4] = second compound 0.0316 µM, first compound 0.1 µM
# [5] = second compound 0.0316 µM, first compound 0.316 µM
# [6] = second compound 0.0316 µM, first compound 1 µM
# [7] = second compound 0.1 µM, first compound 0.00316 µM
# [8] = second compound 0.1 µM, first compound 0.01 µM
# [9] = second compound 0.1 µM, first compound 0.0316 µM
# [10] = second compound 0.1 µM, first compound 0.1 µM
# [11] = second compound 0.1 µM, first compound 0.316 µM
# [12] = second compound 0.1 µM, first compound 1 µM
# [13] = second compound 0.316 µM, first compound 0.00316 µM
# [14] = second compound 0.316 µM, first compound 0.01 µM
# [15] = second compound 0.316 µM, first compound 0.0316 µM
# [16] = second compound 0.316 µM, first compound 0.1 µM
# [17] = second compound 0.316 µM, first compound 0.316 µM
# [18] = second compound 0.316 µM, first compound 1 µM
# [19] = second compound 1 µM, first compound 0.00316 µM
# [20] = second compound 1 µM, first compound 0.01 µM
# [21] = second compound 1 µM, first compound 0.0316 µM
# [22] = second compound 1 µM, first compound 0.1 µM
# [23] = second compound 1 µM, first compound 0.316 µM
# [24] = second compound 1 µM, first compound 1 µM
# 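Note: spheroids exposed to compound for 7 days before readout.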
# 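Throughout, for viability, T/C: 100% = DMSO vehicle control wells.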
smiles,measurement,setting,value
CC(=O)OC12COC1CC(O)C1(C)C(=O)C(O)C3=C(C)C(OC(=O)C(O)C(NC(=O)OC(C)(C)C)c4ccccc4)CC(O)(C(OC(=O)c4ccccc4)C21)C3(C)C (stereo unspecified) + CCn1c(-c2cc(N3CCN(C)CC3)cnc2C(C)OC)c2c3cc(ccc31)-c1csc(n1)CC(NC(=O)C1CC1C)C(=O)N1CCCC(N1)C(=O)OCC(C)(C)C2,IC50,second compound 0.000949 µM,< 31.6 nM
same,IC50,second compound 0.003 µM,< 31.6 nM
same,IC50,second compound 0.00949 µM,< 31.6 nM
same,IC50,second compound 0.03 µM,< 31.6 nM
same,IC50,second compound 0.0949 µM,< 31.6 nM
same,IC50,second compound 0.3 µM,< 31.6 nM
same,"viability, T/C","second compound 0.000949 µM, first compound 0.0316 µM",38.4%
same,"viability, T/C","second compound 0.000949 µM, first compound 0.1 µM",32.3%
same,"viability, T/C","second compound 0.000949 µM, first compound 0.316 µM",21.8%
same,"viability, T/C","second compound 0.000949 µM, first compound 1 µM",32.2%
same,"viability, T/C","second compound 0.000949 µM, first compound 3.16 µM",31.9%
same,"viability, T/C","second compound 0.000949 µM, first compound 10 µM",27.6%
same,"viability, T/C","second compound 0.003 µM, first compound 0.0316 µM",34.2%
same,"viability, T/C","second compound 0.003 µM, first compound 0.1 µM",23.3%
same,"viability, T/C","second compound 0.003 µM, first compound 0.316 µM",22.6%
same,"viability, T/C","second compound 0.003 µM, first compound 1 µM",26.7%
same,"viability, T/C","second compound 0.003 µM, first compound 3.16 µM",32.5%
same,"viability, T/C","second compound 0.003 µM, first compound 10 µM",25.2%
same,"viability, T/C","second compound 0.00949 µM, first compound 0.0316 µM",26%
same,"viability, T/C","second compound 0.00949 µM, first compound 0.1 µM",19%
same,"viability, T/C","second compound 0.00949 µM, first compound 0.316 µM",21.9%
same,"viability, T/C","second compound 0.00949 µM, first compound 1 µM",20.2%
same,"viability, T/C","second compound 0.00949 µM, first compound 3.16 µM",20.9%
same,"viability, T/C","second compound 0.00949 µM, first compound 10 µM",16.8%
same,"viability, T/C","second compound 0.03 µM, first compound 0.0316 µM",19.1%
same,"viability, T/C","second compound 0.03 µM, first compound 0.1 µM",16.3%
same,"viability, T/C","second compound 0.03 µM, first compound 0.316 µM",17.9%
same,"viability, T/C","second compound 0.03 µM, first compound 1 µM",19%
same,"viability, T/C","second compound 0.03 µM, first compound 3.16 µM",11.6%
same,"viability, T/C","second compound 0.03 µM, first compound 10 µM",10%
same,"viability, T/C","second compound 0.0949 µM, first compound 0.0316 µM",11.7%
same,"viability, T/C","second compound 0.0949 µM, first compound 0.1 µM",11.9%
same,"viability, T/C","second compound 0.0949 µM, first compound 0.316 µM",13.4%
same,"viability, T/C","second compound 0.0949 µM, first compound 1 µM",10.5%
same,"viability, T/C","second compound 0.0949 µM, first compound 3.16 µM",6.83%
same,"viability, T/C","second compound 0.0949 µM, first compound 10 µM",6.76%
same,"viability, T/C","second compound 0.3 µM, first compound 0.0316 µM",9.32%
same,"viability, T/C","second compound 0.3 µM, first compound 0.1 µM",9.15%
same,"viability, T/C","second compound 0.3 µM, first compound 0.316 µM",7.89%
same,"viability, T/C","second compound 0.3 µM, first compound 1 µM",8.09%
same,"viability, T/C","second compound 0.3 µM, first compound 3.16 µM",7.91%
same,"viability, T/C","second compound 0.3 µM, first compound 10 µM",6.31%
CCN1CCN(Cc2ccc(Nc3ncc(F)c(-c4cc(F)c5nc(C)n(C(C)C)c5c4)n3)nc2)CC1 + C=CC(=O)N1CCN(c2nc(OCC3CCCN3C)nc3c(F)c(-c4nc(N)cc(C)c4C(F)(F)F)c(Cl)cc23)C(C)C1,IC50,second compound 0.00316 µM,> 1000 nM
same,IC50,second compound 0.01 µM,> 1000 nM
same,IC50,second compound 0.0316 µM,> 1000 nM
same,IC50,second compound 0.1 µM,> 1000 nM
same,IC50,second compound 0.316 µM,> 1000 nM
same,IC50,second compound 1 µM,> 1000 nM
same,"viability, T/C","second compound 0.00316 µM, first compound 0.00316 µM",121%
same,"viability, T/C","second compound 0.00316 µM, first compound 0.01 µM",135%
same,"viability, T/C","second compound 0.00316 µM, first compound 0.0316 µM",100%
same,"viability, T/C","second compound 0.00316 µM, first compound 0.1 µM",90.5%
same,"viability, T/C","second compound 0.00316 µM, first compound 0.316 µM",123%
same,"viability, T/C","second compound 0.00316 µM, first compound 1 µM",167%
same,"viability, T/C","second compound 0.01 µM, first compound 0.00316 µM",95.2%
same,"viability, T/C","second compound 0.01 µM, first compound 0.01 µM",160%
same,"viability, T/C","second compound 0.01 µM, first compound 0.0316 µM",101%
same,"viability, T/C","second compound 0.01 µM, first compound 0.1 µM",88.8%
same,"viability, T/C","second compound 0.01 µM, first compound 0.316 µM",127%
same,"viability, T/C","second compound 0.01 µM, first compound 1 µM",154%
same,"viability, T/C",[1],104%
same,"viability, T/C",[2],120%
same,"viability, T/C",[3],102%
same,"viability, T/C",[4],108%
same,"viability, T/C",[5],131%
same,"viability, T/C",[6],169%
same,"viability, T/C",[7],115%
same,"viability, T/C",[8],136%
same,"viability, T/C",[9],97.9%
same,"viability, T/C",[10],89.3%
same,"viability, T/C",[11],130%
same,"viability, T/C",[12],167%
same,"viability, T/C",[13],98.1%
same,"viability, T/C",[14],134%
same,"viability, T/C",[15],94.5%
same,"viability, T/C",[16],99.9%
same,"viability, T/C",[17],154%
same,"viability, T/C",[18],154%
same,"viability, T/C",[19],94.2%
same,"viability, T/C",[20],136%
same,"viability, T/C",[21],94.9%
same,"viability, T/C",[22],96.8%
same,"viability, T/C",[23],138%
same,"viability, T/C",[24],160%
C=CC(=O)N1CCN(c2nc(OCC3CCCN3C)nc3c(F)c(-c4nc(N)cc(C)c4C(F)(F)F)c(Cl)cc23)C(C)C1 (stereo unspecified) + C#Cc1c(F)ccc2cc(O)cc(-c3ncc4c(N5CC6CCC(C5)N6)nc(OCC56CCCN5CC(F)C6)nc4c3F)c12,IC50,second compound 0.0316 µM,> 1000 nM
same,IC50,second compound 0.1 µM,> 1000 nM
same,IC50,second compound 0.316 µM,> 1000 nM
same,IC50,second compound 1 µM,> 1000 nM
same,IC50,second compound 3.16 µM,29.9 nM
same,IC50,second compound 10 µM,> 1000 nM
same,"viability, T/C",[1],95.7%
same,"viability, T/C",[2],113%
same,"viability, T/C",[3],95.9%
same,"viability, T/C",[4],66.7%
same,"viability, T/C",[5],71.1%
same,"viability, T/C",[6],91.7%
same,"viability, T/C",[7],83.9%
same,"viability, T/C",[8],90.8%
same,"viability, T/C",[9],79.9%
same,"viability, T/C",[10],57.2%
same,"viability, T/C",[11],75.3%
same,"viability, T/C",[12],76.5%
same,"viability, T/C",[13],80%
same,"viability, T/C",[14],74.6%
same,"viability, T/C",[15],60.1%
same,"viability, T/C",[16],62.3%
same,"viability, T/C",[17],56.5%
same,"viability, T/C",[18],63.3%
same,"viability, T/C",[19],60.6%
same,"viability, T/C",[20],61.9%
same,"viability, T/C",[21],48.4%
same,"viability, T/C",[22],50.7%
same,"viability, T/C",[23],56.1%
same,"viability, T/C",[24],61%
same,"viability, T/C","second compound 3.16 µM, first compound 0.00316 µM",56.4%
same,"viability, T/C","second compound 3.16 µM, first compound 0.01 µM",56.8%
same,"viability, T/C","second compound 3.16 µM, first compound 0.0316 µM",40.5%
same,"viability, T/C","second compound 3.16 µM, first compound 0.1 µM",51.1%
same,"viability, T/C","second compound 3.16 µM, first compound 0.316 µM",52.5%
same,"viability, T/C","second compound 3.16 µM, first compound 1 µM",54.5%
same,"viability, T/C","second compound 10 µM, first compound 0.00316 µM",51.2%
same,"viability, T/C","second compound 10 µM, first compound 0.01 µM",53.2%
same,"viability, T/C","second compound 10 µM, first compound 0.0316 µM",46.8%
same,"viability, T/C","second compound 10 µM, first compound 0.1 µM",48.6%
same,"viability, T/C","second compound 10 µM, first compound 0.316 µM",57.3%
same,"viability, T/C","second compound 10 µM, first compound 1 µM",53.4%
